Assay [1] relates to Capan-2 cells (KRAS G12V). In words: 3D Cell viability assay in Capan-2 cells (Biological Example 6). In kind it is cell-based. Particulars: Homo sapiens; Capan-2 (KRAS G12V) spheroids, 72 hours. In outline: (§1)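 Tumour spheroids, grown 48 h from 1000 seeded cells in ultra-low attachment wells, receive compound at nine three-fold-spaced concentrations (final DMSO 0.25%) for 72 h at 37 °C, 5% CO2. Viability is measured by luminescence after CTG 3D lysis.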

Assay [2] relates to AsPC-1 cells (KRAS G12D). The assay is described as follows: 3D Cell viability assay in AsPC-1 cells (Biological Example 6). The assay is classed as cell-based. Conditions: Homo sapiens, ASPC1; AsPC-1 (KRAS G12D) spheroids, 72 hours. In outline: as §1
The test system of assay [3] is MKN1 cells (KRAS amplification). In words: Cell-based pERK HTRF assay in MKN1 cells (Biological Example 5). Particulars: Homo sapiens, MKN-1, MKN cells (MKN1, KRAS amplification). In outline:
(§2)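 Cells seeded at 2.5×10^4/well in 10% FBS medium overnight, then treated 2 h at 37° C with a 9-point, three-fold compound dilution series (0.25% DMSO final). Lysates were read by HTRF for pERK1/2 (Thr202/Tyr204) after 24 h at 4° C; EC50 came from a four-parameter fit of 665/620 nm ratios.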
(Time-resolved FRET reads energy transfer from a long-lived donor to a nearby acceptor.)

The test system of assay [4] is AsPC-1 cells (KRAS G12D). The assay is described as follows: Cell-based pERK HTRF assay in AsPC-1 cells (Biological Example 5). Conditions: Homo sapiens, ASPC1, AsPC-1 (KRAS G12D) cells. The gist of the method:
as §2

Assay [5] has as its system H358 cells (KRAS G12C). The assay is described as follows: 3D Cell viability assay in H358 cells (Biological Example 6). In kind it is cell-based. Conditions: Homo sapiens, NCI-H358; H358 (KRAS G12C) spheroids, 72 hours. The gist of the method: as §1
The subject of assay [6] is HPAC cells (KRAS G12D). The assay is described as follows: 3D Cell viability assay in HPAC cells (Biological Example 6). The assay is classed as cell-based. Conditions: Homo sapiens, HPAC, 72 h, HPAC (KRAS G12D) spheroids. The gist of the method:
as §1

The test system of another assay is HCT116 cells (KRAS G13D). In words: Cell-based pERK HTRF assay in HCT116 cells (Biological Example 5). Particulars: Homo sapiens, HCT-116. The gist of the method:
as §2

Assay [7] has as its system SW1900 cells (KRAS G12D). The assay is described as follows: 3D Cell viability assay in SW1900 cells (Biological Example 6). Particulars: Homo sapiens; SW1990 (text: SW1900, KRAS G12D) spheroids, 72 hours. The assay is classed as cell-based. The gist of the method:
as §1

Assay [8] deals with HT1080 cells (NRAS). The assay is described as follows: 3D Cell viability assay in HT1080 cells (Biological Example 6). The assay is classed as cell-based. Conditions: Homo sapiens, HT-1080; HT1080 (NRAS) spheroids, 72 hours. The gist of the method:
as §1

Assay [9] deals with SW1900 cells (KRAS G12D). In words: Cell-based pERK HTRF assay in SW1900 cells (Biological Example 5). Particulars: Homo sapiens, SW1990, SW1990 cells (text: SW1900, KRAS G12D). The gist of the method: as §2
The next assay relates to H1573 cells (KRAS G12A). The assay is described as follows: Cell-based pERK HTRF assay in H1573 cells (Biological Example 5). Particulars: Homo sapiens, NCI-H1573. The gist of the method:
as §2

Another assay concerns KP-2 cells (KRAS G12R). The assay is described as follows: Cell-based pERK HTRF assay in KP-2 cells (Biological Example 5). Conditions: KP-2 (KRAS G12R) cells. The gist of the method:
as §2

In assay [10] the test system is H358 cells (KRAS G12C). In words: Cell-based pERK HTRF assay in H358 cells (Biological Example 5). Conditions: Homo sapiens, NCI-H358, H358 (KRAS G12C) cells. In outline:
as §2

Assay [11] deals with MKN1 cells (KRAS amplification). In words: 3D Cell viability assay in MKN1 cells (Biological Example 6). In kind it is cell-based. Conditions: Homo sapiens, MKN-1; MKN (MKN1, KRAS amplification) spheroids, 72 hours. In outline:
as §1

In assay [12] the test system is Capan-2 cells (KRAS G12V). The assay is described as follows: Cell-based pERK HTRF assay in Capan-2 cells (Biological Example 5). Particulars: Homo sapiens, Capan-2, Capan-2 (KRAS G12V) cells. In outline: as §2
Another assay concerns RKN cells (KRAS G12V). The assay is described as follows: Cell-based pERK HTRF assay in RKN cells (Biological Example 5). In outline:
as §2

In assay [13] the test system is HPAC cells (KRAS G12D). The assay is described as follows: Cell-based pERK HTRF assay in HPAC cells (Biological Example 5). Conditions: Homo sapiens, HPAC. In outline: as §2
The test system of assay [14] is HT1080 cells (NRAS). In words: Cell-based pERK HTRF assay in HT1080 cells (Biological Example 5). Particulars: Homo sapiens, HT-1080. In outline:
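A two-hour compound treatment (0.25% DMSO) of cells seeded the previous day preceded lysis and HTRF phospho-ERK1/2 detection. EC50 values were fitted by variable-slope four-parameter regression.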

The values that follow come from US20260042764A1, “COMPOSITIONS AND METHODS FOR INHIBITION OF KRAS” (TheRas, Inc., priority 2022, published 2026).

In the case of `CCN(c1nc(OC[C@@]23CCCN2C[C@H](F)C3)nc2c(F)c(-c3ccc(F)c4sc(N)c(C#N)c34)c(C(F)(F)F)cc12)[C@H]1CCN(C(=O)C(C)C)C1` (single isomer, unassigned) [Compound 469], the IC50 (in [1]; with AsPC-1 cells (KRAS G12D) [2]; in assay [3]; in the assay with AsPC-1 cells (KRAS G12D) [4]; in the assay on H358 cells (KRAS G12C) [5]; in the assay on HPAC cells (KRAS G12D) [6]) was not above 100 nM in each case. In addition, the IC50 in the assay on HCT116 cells (KRAS G13D) was not above 100 nM; in the assay with SW1900 cells (KRAS G12D) [7], not above 100 nM; with HT1080 cells (NRAS) [8] it was more than 1000 nM; in the assay on SW1900 cells (KRAS G12D) [9] it was not above 100 nM; with H1573 cells (KRAS G12A), not above 100 nM; in the assay on KP-2 cells (KRAS G12R), 100 to 1000 nM. For the same molecule, the IC50 in the assay on H358 cells (KRAS G12C) [10] was not above 100 nM; in assay [11], not above 100 nM; in assay [12], not above 100 nM; in the assay with RKN cells (KRAS G12V) it was not above 100 nM; with HPAC cells (KRAS G12D) [13] it was 100 to 1000 nM; with HT1080 cells (NRAS) [14], more than 1000 nM.

Broadly, the IC50 is the point on the concentration scale where inhibition reaches its midpoint.
